This assay relates to Plasmodium falciparum. Kind of assay: GSK_TCMDC: Inhibition of Plasmodium falciparum 3D7 in whole erythrocytes, using parasite LDH activity as an index of growth. Format: functional, organism-based. The conditions noted are these: Plasmodium falciparum, 3D7.

For `CC(=O)CCc1ccc(OCCN(Cc2ccccc2C(F)(F)F)c2ccc(C#N)c(C(F)(F)F)c2)cc1`, the XC50 was 267 nM.

As for `CC(=O)Nc1ccc(CN2CCC(NC(=O)c3ccc(-c4ccc(N(C)C)cc4)s3)CC2)cc1`, the XC50 is 869 nM.

`COc1cc(CNCCC(C)C)ccc1OCc1cccc(COc2ccc(CNCCC(C)C)cc2OC)c1` showed an XC50 of 492 nM.

As for `O=C(Cc1cccc(Cl)c1)Nc1cccc(-c2c[nH]c3nc(Nc4cccc(O)c4)ncc23)c1`, the XC50 worked out at 731 nM.

Take `CCc1c[nH]c2c(N3CCCC3=O)cc(C(=O)N[C@@H](Cc3ccccc3)[C@H](O)CNC(C)(C)c3cccc(OC)c3)cc12`: the XC50 is 192 nM.

Molecule `COc1ccc(-c2ccc(NC(=O)c3cccc(Cl)c3)cc2)cc1CN1CCN(C)CC1` came in with an XC50 of 951 nM.

`Cc1ccc(NC(=O)c2ccc(CN3CCCN(CCC(C)C)CC3)cc2)cc1F` displayed an XC50 of 609 nM.

In the case of `Cc1cc(N[C@@H](CC(C)C)C(=O)NCCOc2ccccc2)nc(NCCOc2ccccc2)n1`, the XC50 was determined as 1490 nM.

In turn, `COc1ccccc1CNC(=O)c1cc(Br)cc(N2CCN(c3ccncc3)CC2)c1` returned an XC50 of 946 nM.

Turning to `c1ccc(Oc2ccc(Nc3ccnc4cc(-c5ccc(CN6CCOCC6)o5)ccc34)cc2)nc1`, the XC50 is 906 nM.

`CC(=O)Nc1cccc(C(=O)Nc2cccc(-c3ccc(-c4nc5cccc(C)c5[nH]4)cc3)c2)c1`: the XC50 was 908 nM.

Take `COc1cc(Cc2cnc(N)nc2N)cc(OCc2cccc(C(=O)O)c2)c1OC`: the XC50 came out at 835 nM.

The molecule `COc1ccc2ncc(C#N)c(CCN3CCC(NCc4ccc5c(c4)NC(=O)CO5)CC3)c2c1` yielded an XC50 of 588 nM.

The molecule `CC1(C)N=C(N)N=C(N)N1c1ccccc1` yielded an XC50 of 327 nM.

Consider `COc1ccc2nccc(NCC3(O)CCC(NCc4ccc5c(n4)NC(=O)CS5)CC3)c2n1` (stereo not given), for which the XC50 came out at 689 nM.

For `Cc1ccc(Nc2nccc(NCC(O)c3cccc(C(F)(F)F)c3)n2)cc1` (stereo not given), the XC50 worked out at 677 nM.

In the case of `Cc1sc2nc(CSc3ccccc3)nc(N3CCN(CC(=O)NC4CC4)CC3)c2c1C`, the XC50 worked out at 462 nM.

In turn, `C#CC[C@@H](NC(N)=O)C(=O)O` had an XC50 of 189 nM.

`CN(C)CCNc1nccc(N2CCc3ncnc(Nc4ccc(OCc5cccc(F)c5)c(Cl)c4)c3C2)n1` gave an XC50 of 138 nM.

On to `COc1cc(CNCCCNc2nc(=O)c3sccc3[nH]2)c2[nH]cc(Cl)c2c1`, for which the XC50 was 888 nM.

Take `COc1ccc2nccc([C@@H](O)CN3CCC(NC(=O)Cn4nc(-c5ccc(C(F)(F)F)cc5)ccc4=O)CC3)c2c1`: the XC50 is 737 nM.

With `O=C(C=Cc1ccc(C(=O)Nc2ccc(C3=NCCN3)cc2)cc1)Nc1ccc(C2=NCCN2)cc1`, the XC50 came out at 34.7 nM.

On to `CC(C)CNCc1ccc(-c2ccccc2CNC2CCN(Cc3ccccc3)CC2)cc1`, for which the XC50 is 565 nM.

Consider `O=C(O)c1cc(OCC(O)COc2ccc(O)c(C(=O)O)c2)ccc1O`, for which the XC50 stood at 227 nM.

On to `O=C(Cc1ccc(Cl)cc1)NC1CCN(c2ccnc3cc(Cl)ccc23)C1` (stereo not given), for which the XC50 was 226 nM.

In turn, `CCN(CC)CCCC(C)Nc1ccnc2[nH]c3ccccc3c12` (stereo not given) showed an XC50 of 1770 nM.

The molecule `CN(C)c1ccc(-c2ccc(C(=O)NC3CCN(Cc4cccc(C(F)(F)F)c4)CC3)s2)cc1` gave an XC50 of 985 nM.

Turning to `CC(=O)N(C)c1cccc(CNc2cc(C)nc(Nc3ccc(C)cc3)n2)c1`, the XC50 stood at 996 nM.

`FC(F)(F)c1cnc(Sc2nnc(-c3ccncc3)o2)c(Cl)c1` showed an XC50 of 272 nM.

Turning to `O=S(=O)(Nc1ccc2nccc(N3CCNCC3)c2c1)c1ccc2oc3ccccc3c2c1`, the XC50 worked out at 695 nM.

`FC(F)(F)c1ccc(Nc2nnnc3ccccc23)cc1`: the XC50 worked out at 692 nM.

As for `NC1CCCN(Cc2cccc(-c3ccc(-c4nc5cc(F)ccc5[nH]4)cc3)c2)C1` (stereo not given), the XC50 turned out to be 566 nM.

Take `COC(=O)c1ccc(CC(C)NCC(O)c2ccc3ccc4ccccc4c3c2)cc1` (stereo not given): the XC50 was determined as 223 nM.

Consider `CCN(CC)CCN(Cc1ccc(-c2ccc(C(F)(F)F)cc2)cc1)C(=O)Cn1c(CCc2ccccc2F)nc(=O)c2ccccc21`, for which the XC50 was found to be 934 nM.

Consider `CCN(CC)CCN1C(=O)C(O)(c2ccccc2Cl)c2c1cc(C#N)cc2C(F)(F)F` (stereo not given), for which the XC50 amounted to 947 nM.

Molecule `O=C(Cc1ccccc1)NC(c1ccccc1)c1ccc2cccnc2c1O` (stereo not given) gave an XC50 of 952 nM.

Take `Cc1cc(=NN=Cc2ccc(Cl)cc2)c2cc(C(F)(F)F)ccc2[nH]1`: the XC50 was found to be 920 nM.

Molecule `COc1ccc2c(c1)CCN(CCN1CCC(CNC(=O)c3ccc(-c4ccc(C#N)cc4)cc3)CC1)C2` returned an XC50 of 617 nM.

Take `NC1CCCN(Cc2cccc(-c3ccc(-c4nc5cc(C(F)(F)F)ccc5[nH]4)cc3)c2)C1` (stereo not given): the XC50 stood at 518 nM.

Consider `Cc1nc2c(c(O)c1Cl)-c1ccc(Oc3cccc(C(F)(F)F)c3)cc1C2=O`, for which the XC50 came to 37.9 nM.

In turn, `CCSc1nnc(C2CCCN(CC(=O)Nc3cc(C(F)(F)F)ccc3Cl)C2)n1CC` (stereo not given) had an XC50 of 232 nM.

Regarding `COc1cc2c(=O)c(Cc3ccc(Cl)cc3)c(C)[nH]c2cc1F`, the XC50 stood at 1160 nM.

`C=CCN1CCC(N(Cc2cccc(Oc3ccccc3)c2)C(=O)C(c2ccccc2)c2ccccc2)CC1` registered an XC50 of 1140 nM.

In turn, `COc1cccc(N(CCCN2C(=O)c3cccc4cccc(c34)C2=O)C(=O)c2ccccc2C)c1` displayed an XC50 of 795 nM.

For `Cc1ccc2[nH]c(-c3cc(-c4ccc(OCc5ccccc5)cc4)cnc3N)nc2c1`, the XC50 came to 1680 nM.

The molecule `Clc1ccccc1CNc1noc(-c2sccc2Br)n1` gave an XC50 of 787 nM.

In turn, `CCNc1cc(C(=O)N[C@@H](Cc2ccccc2)[C@H](O)CNC(C)(C)CCCC(C)C)cc(N2CCCCS2(=O)=O)c1` returned an XC50 of 446 nM.

Molecule `COc1ccc(C2c3cc(OC)c(OC)cc3C(=NO)C2C)cc1OC` (stereo not given) displayed an XC50 of 1170 nM.

For the molecule `Cc1cc(=O)c(-c2ccc(Oc3cccc(Cl)c3)cc2)c(C)[nH]1`, the XC50 came to 602 nM.

`COCCN1CCC(NCC(C)(C)c2nc(-c3ccc(Cl)c(O)c3)c(-c3ccncc3)[nH]2)CC1`: the XC50 is 717 nM.

In turn, `Cc1cccc(C)c1N1CCN(C2CCC(NC(=O)/C=C/c3ccccc3)CC2)CC1` (stereo not given) had an XC50 of 1180 nM.

The molecule `COc1cc(NC(=O)N2CCc3ccc(OCCN(C(C)C)C(C)C)cc32)cc(C(F)(F)F)c1` came in with an XC50 of 186 nM.

`Cn1ncc2ccc(Nc3nccc(-c4ccc5c(c4)c(N)nn5C)n3)cc21` gave an XC50 of 648 nM.

For the molecule `CN1CCC(C(=O)N(Cc2ccc(-c3ccc(CNCCc4ccc(S(C)(=O)=O)cc4)cn3)cc2)Cc2ccc3c(c2)OCO3)CC1`, the XC50 was determined as 1000 nM.

`COc1ccc(Cn2c(SCc3ccc(C)cc3)nc3cc(OC)c(OC)cc3c2=N)cc1Cl` gave an XC50 of 977 nM.

Turning to `CC(=O)N[C@H](C(=O)Nc1cccc(-c2ccc(-c3nc4cccc(C)c4[nH]3)s2)c1)C(C)C`, the XC50 is 760 nM.

`O=C(Nc1ccc(Br)c(C(F)(F)F)c1)c1cccc([N+](=O)[O-])c1` came in with an XC50 of 914 nM.

`Fc1ccc2ncc(Cl)c(CCN3CCC(NCc4cc5c(cn4)OCCO5)CC3)c2c1` yielded an XC50 of 884 nM.

`COc1ccc2ccccc2c1CCCCN1CCN(CC(c2ccc(F)cc2)N2CCN(C3CCCC3)CC2)CC1` (stereo not given) registered an XC50 of 772 nM.

Molecule `CC(Cc1ccc(C2=CCNCC2)cc1)NCC(O)c1cccc(C(F)(F)F)c1` (stereo not given) had an XC50 of 1570 nM.

In turn, `Cc1sc(NC(=O)Cc2cccc(C(F)(F)F)c2)nc1-c1cccc(Cl)c1` showed an XC50 of 470 nM.

In turn, `Cc1ccc(Nc2nc(C)cc(N3CCN(CCc4ccccc4)CC3)n2)cc1` came in with an XC50 of 972 nM.

Molecule `CC(C)c1cccc(OCC2CCN(c3ccc(C(=O)Nc4ccccc4)cn3)CC2)c1` came in with an XC50 of 701 nM.

As to `O=C(Nc1cc(C(F)(F)F)cc(C(F)(F)F)c1)c1cc(Cl)ccc1O` [IMD-0354], the XC50 stood at 1310 nM.

`CC(C)CNCc1cccc(-c2ccc(CN(CCCN3CCN(C)CC3)C(=O)CCC3CCCC3)cc2)c1` showed an XC50 of 877 nM.

`O=C(Nc1cccc(-c2ccc(-c3nc4cc(F)ccc4[nH]3)cc2)c1)c1ccncc1`: the XC50 is 278 nM.

On to `O=C(Nc1ccccc1Br)c1cn(-c2ccccc2)nc1-c1cccc([N+](=O)[O-])c1`, for which the XC50 was determined as 1320 nM.

Take `COc1c(C2CCN(CCCCNC(=O)c3ccc(-c4ccc(C(F)(F)F)cc4)c(C(=O)OC(C)C)c3)CC2)ccc2c1CCCC2`: the XC50 is 858 nM.

`CC1(C)Cc2c([nH]c3ccccc23)C(CCCCCCCCC2=NC(C)(C)Cc3c2[nH]c2ccccc32)=N1` registered an XC50 of 933 nM.

Consider `CCC(CC)(Cc1ccccc1)NC(=O)[C@H](CC1CCCCC1)Nc1ccc(C#N)c2ccccc12`, for which the XC50 worked out at 634 nM.

Take `CC(C)(C)c1ccc(CNC(=O)/C=C/c2ccc(-c3nc4cc(C(C)(C)C)ccc4[nH]3)cc2)cc1`: the XC50 was determined as 545 nM.

As for `Nc1nc(N)c2c(Oc3ccc(Cl)c(Cl)c3)cccc2n1`, the XC50 stood at 871 nM.

`COc1cc2nc(NCCc3ccccc3)nc(NCc3nccs3)c2cc1OC` came in with an XC50 of 532 nM.

Consider `CC1CCc2sc(-c3nnc(SC(C)C(=O)N4CCCC4)o3)cc2C1` (stereo not given), for which the XC50 was 878 nM.

In the case of `COc1ccc(C2SCC(=O)N2CCc2ccc(OC)c(OC)c2)cc1` (stereo not given), the XC50 was determined as 306 nM.

`O=C(NCCc1ccccc1)N(Cc1ccccc1-c1ccc(CNC2CCCC2)cc1)C1CCN(Cc2ccccc2)CC1`: the XC50 worked out at 1130 nM.

The molecule `O=C(NCCNc1noc(-c2sccc2Br)n1)c1ccc(Cl)cc1` gave an XC50 of 1170 nM.

Consider `Cc1ccc(C(=O)Nc2cccc(CN3CCCN(Cc4ccc(O)cc4)CC3)c2)cc1`, for which the XC50 was 1090 nM.

On to `Cc1[nH]c(C)c(-c2ccc(-c3ccc(OCC(F)(F)F)cc3)nc2)c(=O)c1Cl`, for which the XC50 worked out at 389 nM.

Consider `COc1ccc(OC)c(Cc2cnc3nc(N)nc(N)c3c2C)c1` [PIRITREXIM], for which the XC50 was determined as 10.2 nM.

`c1cc(-c2ccc(CNCCCn3ccnc3)cc2)cc(-c2nc3ccccc3[nH]2)c1` had an XC50 of 113 nM.

With `COc1ccc(C(=O)CCC(=O)N(Cc2ccc(-c3ccc(CNCCc4ccc(S(C)(=O)=O)cc4)cn3)cc2)C(C)CN(C)C)cc1F` (stereo not given), the XC50 stood at 650 nM.

`O=C(N[C@H](Cc1ccc(Cl)cc1)C(=O)N1CCN(c2ccnc3cc(Cl)ccc23)CC1)[C@H]1Cc2ccccc2CN1` showed an XC50 of 424 nM.

In turn, `COc1c(C2CCN(CCCCNC(=O)c3ccc(-c4ccc(C#N)cc4)cc3)CC2)ccc2c1C(C)(C)CCC2(C)C` gave an XC50 of 411 nM.

With `CC(Cc1ccc(CN(CC(N)=O)Cc2ccc(CC(C)NCCc3cccc(Cl)c3)cc2)cc1)NCCc1cccc(Cl)c1` (stereo not given), the XC50 was 665 nM.

Source of the values: ChEMBL document CHEMBL1157539, “Thousands of chemical starting points for antimalarial lead identification” (Nature, 2010).
